Here are results for six compounds from US10562857B2 (AFASCI, Inc., priority 2015, dated 2020).

The target of assay [1] is T1, Cav3.1 (Homo sapiens, UniProt O43497).
T1 construct: expressed in transfected cells; host or cells: HEK-293, tetracycline inducible expression system (Invitrogen)
Kind of assay: Whole-cell patch clamp of T-type Cav3.1 channel expressed in HEK293 cells. It counts as cell-based. Conditions: Table 2. On the procedure:
(§1) Cav3.1, Cav3.2 or Cav3.3 channels were expressed in human embryonic kidney (HEK)-293 cells using a tetracycline inducible expression system (Invitrogen). Cells were maintained in 25 cm^2 tissue culture flasks at 37° C., 5% CO2, and 100% relative humidity in D-MEM/F12 (Dulbecco's Modified Eagle Medium/Nutrient Mixture F-12; Gibco) supplemented with fetal bovine serum (FBS, 10% v/v), sodium pyruvate (0.5 mM, Gibco), penicillin-streptomycin (100 U/mL, 100 μg/mL) and Geneticin® Selective antibiotic (G418; 0.5 mg/mL). Cells were detached from the flask base using a non-enzymatic cell dissociation solution (Cellstripper, Corning), removed and re-seeded on to poly-D-lysine coated glass coverslips in 35 mm dishes.
(§2) Whole-cell voltage clamp recordings were performed on rat or mouse DRG neurons within 2 days after acutely dissociation or cultured HEK293 cells expressing T-type channels (encoded by Cav3.1, Cav3.2 or Cav3.3 channels). All experiments were performed at room temperature (around 21° C.). Whole-cell currents were recorded using a MultiClamp 700B amplifier and analyzed offline with pCLAMP10.4 software (Molecular Devices, LLC, Sunnyvale Calif., USA). […] Since the sodium ions were absent in the external solution, tetrodoctoxin was not needed. Calcium currents were recorded at a holding potential of −100 mV and then depolarized to −30 mV for 100 ms to activate either Cav3.1, Cav3.2, or Cav3.3 expressed in HEK cells. An interpulse interval of 10 seconds allowed the channel recovery from inactivation, and achieved stable current recordings. To record sodium (Na^+) currents in DRG neurons, the external solution used the modified Krebs solution specified above. The internal solution was composed (in mM) of 120 CsF, 10 HEPES, 11 EGTA, 1 CaCl2, 1 MgCl2, 10 TEA-Cl, 4 MgATP and 0.3 MgGTP (pH 7.3-7.4 adjusted with CsOH). […] To record potassium currents in DRG neurons, the external solution used the modified Kreb's solution specified above. The internal solution was composed (in mM) of 65 KCl, 80 KF, 5 KOH, 10 EGTA, 2 MgATP (pH 7.3-7.4 adjusted with KOH). Recording electrodes were fabricated using a P-87 puller (Sutter Instrument Co., Novato, Calif., USA). The tip of resistance was 3-4 MQ in bath and the series resistance was less than 10 MΩ after whole cell configuration. All reagents were purchased from Sigma unless specified otherwise. Test compounds were usually applied via a rapid solution exchange system with 8 fine polyplastic tubings (100 μm, OD) glued in a holder in parallel and located closely to the recorded cells. The current responses were normalized to the control, percent inhibition was calculated and sigmoidal dose-response curves were generated using XLFit (IDBS, Surrey, UK) or Prism (GraphPad Software, La Jolla, Calif., US) to calculate IC50 values and Hill slopes using the following equation Y=Bottom+(Top−Bottom)/(1+10^((Log EC50−X)[…])).
Background: Patch clamp records ionic current or voltage across a cell membrane.

Assay [2] relates to PTZ-induced seizures in mice. Put plainly: Pentylenetetrazol (PTZ)-induced seizures in mice. The assay is classed as in vivo, mouse. Conditions: 30 mg/kg I.P., PTZ 40 mg/kg I.P.; for fatality latency / fatality rate: 20 min cutoff. On the procedure: FIG. 10. […] Sixty minutes (min) prior to receiving PTZ (40 mg/kg, I.P.), each mouse was pretreated with either an Example compound, ML218, Z944 or vehicle (2% DMSO in 0.5% HPC). Fatality rate (%) of mice in each group that dies within the 20 minutes observation period—was calculated. Both fatality rate and latency (data not shown) to death were used to evaluate the Example compound's ability to prevent death resulting from PTZ-induced seizures. A cutoff of 20 minutes was set for observational and statistical analysis purposes.
It is well known that antiepileptics, e.g. carbamazepine, lamotrigine and gabapentin are used for the treatment of neuropathic pain (Xie et al., 1995, Caviedes and Herranz, 2001). T-channel overactivation is involved in the generation of seizure activity (Huguenard, 1998, Cribbs et al., 2000, Perez-Reyes et al., 2009, Perez-Reyes, 2010). […] Fatality latency and rate—the percentage (%) of mice in each treatment group that died within a 20 minute cutoff of the observational period, were recorded and calculated. Averaged fatality latency and rate of each treatment group was used to evaluate the Example compound's ability to either prevent or delay the onset of PTZ-induced seizures and death.

Assay [3] deals with DRG ion channels K+. Put plainly: Potassium currents in DRG neurons, patch clamp. Particulars: Table 2. The assay is classed as cell-based, rodent. On the procedure:
All the procedures related to animal handling were in strict accordance with NIH guidelines and IACUC approved protocols. Briefly, the spine was taken out and split into two halves from the middle line after sacrificing the mice by decapitation. […] The DRG neurons were minced with fine scissors and incubated at 35° C. for 50 min. […] Finally the cells were dispersed onto poly-1-ornithine-coated cover slips and maintained in a modified Krebs solution with streptomycin sulfate (0.2 mM), Penicillin G Sodium (0.3 mM), and Gentamycin (0.1 mM) at 21° C. […] All experiments were performed at room temperature (around 21° C.). Whole-cell currents were recorded using a MultiClamp 700B amplifier and analyzed offline with pCLAMP10.4 software (Molecular Devices, LLC, Sunnyvale Calif., USA). […] The internal solution was composed (in mM) of 125 CsCl, 10 HEPES (acid), 10 EGTA (ethylene glycol tetraacetic acid), 1 CaCl2, 1 MgCl2, 4 MgATP and 0.3 […] 7.3-7.4 adjusted with CsOH; osmolality verified as 295 mOsm/kg). Since the sodium ions were absent in the external solution, tetrodoctoxin was not needed. […] To record sodium (Na^+) currents in DRG neurons, the external solution used the modified Krebs solution specified above. […] To record potassium currents in DRG neurons, the external solution used the modified Kreb's solution specified above. The internal solution was composed (in mM) of 65 KCl, 80 KF, 5 KOH, 10 EGTA, 2 MgATP (pH 7.3-7.4 adjusted with KOH). Recording electrodes were fabricated using a P-87 puller (Sutter Instrument Co., Novato, Calif., USA). […] All reagents were purchased from Sigma unless specified otherwise. […] Selectivity among the three subtypes of the Cav3 T-type channel, and off-target effects on other key ion channels of the representative example compounds are presented in Table 2. Sodium and potassium channels in the rodent DRG neurons were recorded and tested as described above. The human ether-a-go-go-related gene (hERG) encodes the rapidly activating potassium channel (IKr) contributing to the repolarization of the cardiac action potential. The blockade of hERG can lead to a QT prolongation in the electrocardiogram known as long QT syndrome (Sanguinetti, et al., 1995). Therefore the representative example compounds in Table 2 were tested against the hERG channel.

Assay [4] has as its target T2, Cav3.3 (Homo sapiens, UniProt Q9P0X4).
T2 construct: expressed in transfected cells; host or cells: HEK-293, tetracycline inducible expression system (Invitrogen)
Kind of assay: Whole-cell patch clamp of T-type Cav3.3 channel expressed in HEK293 cells. The assay is classed as cell-based. Conditions: Table 2. On the procedure: as §1, §2

Bounds are passed on as bounds.

T2 sequence (Q9P0X4 whole entry, species assumed): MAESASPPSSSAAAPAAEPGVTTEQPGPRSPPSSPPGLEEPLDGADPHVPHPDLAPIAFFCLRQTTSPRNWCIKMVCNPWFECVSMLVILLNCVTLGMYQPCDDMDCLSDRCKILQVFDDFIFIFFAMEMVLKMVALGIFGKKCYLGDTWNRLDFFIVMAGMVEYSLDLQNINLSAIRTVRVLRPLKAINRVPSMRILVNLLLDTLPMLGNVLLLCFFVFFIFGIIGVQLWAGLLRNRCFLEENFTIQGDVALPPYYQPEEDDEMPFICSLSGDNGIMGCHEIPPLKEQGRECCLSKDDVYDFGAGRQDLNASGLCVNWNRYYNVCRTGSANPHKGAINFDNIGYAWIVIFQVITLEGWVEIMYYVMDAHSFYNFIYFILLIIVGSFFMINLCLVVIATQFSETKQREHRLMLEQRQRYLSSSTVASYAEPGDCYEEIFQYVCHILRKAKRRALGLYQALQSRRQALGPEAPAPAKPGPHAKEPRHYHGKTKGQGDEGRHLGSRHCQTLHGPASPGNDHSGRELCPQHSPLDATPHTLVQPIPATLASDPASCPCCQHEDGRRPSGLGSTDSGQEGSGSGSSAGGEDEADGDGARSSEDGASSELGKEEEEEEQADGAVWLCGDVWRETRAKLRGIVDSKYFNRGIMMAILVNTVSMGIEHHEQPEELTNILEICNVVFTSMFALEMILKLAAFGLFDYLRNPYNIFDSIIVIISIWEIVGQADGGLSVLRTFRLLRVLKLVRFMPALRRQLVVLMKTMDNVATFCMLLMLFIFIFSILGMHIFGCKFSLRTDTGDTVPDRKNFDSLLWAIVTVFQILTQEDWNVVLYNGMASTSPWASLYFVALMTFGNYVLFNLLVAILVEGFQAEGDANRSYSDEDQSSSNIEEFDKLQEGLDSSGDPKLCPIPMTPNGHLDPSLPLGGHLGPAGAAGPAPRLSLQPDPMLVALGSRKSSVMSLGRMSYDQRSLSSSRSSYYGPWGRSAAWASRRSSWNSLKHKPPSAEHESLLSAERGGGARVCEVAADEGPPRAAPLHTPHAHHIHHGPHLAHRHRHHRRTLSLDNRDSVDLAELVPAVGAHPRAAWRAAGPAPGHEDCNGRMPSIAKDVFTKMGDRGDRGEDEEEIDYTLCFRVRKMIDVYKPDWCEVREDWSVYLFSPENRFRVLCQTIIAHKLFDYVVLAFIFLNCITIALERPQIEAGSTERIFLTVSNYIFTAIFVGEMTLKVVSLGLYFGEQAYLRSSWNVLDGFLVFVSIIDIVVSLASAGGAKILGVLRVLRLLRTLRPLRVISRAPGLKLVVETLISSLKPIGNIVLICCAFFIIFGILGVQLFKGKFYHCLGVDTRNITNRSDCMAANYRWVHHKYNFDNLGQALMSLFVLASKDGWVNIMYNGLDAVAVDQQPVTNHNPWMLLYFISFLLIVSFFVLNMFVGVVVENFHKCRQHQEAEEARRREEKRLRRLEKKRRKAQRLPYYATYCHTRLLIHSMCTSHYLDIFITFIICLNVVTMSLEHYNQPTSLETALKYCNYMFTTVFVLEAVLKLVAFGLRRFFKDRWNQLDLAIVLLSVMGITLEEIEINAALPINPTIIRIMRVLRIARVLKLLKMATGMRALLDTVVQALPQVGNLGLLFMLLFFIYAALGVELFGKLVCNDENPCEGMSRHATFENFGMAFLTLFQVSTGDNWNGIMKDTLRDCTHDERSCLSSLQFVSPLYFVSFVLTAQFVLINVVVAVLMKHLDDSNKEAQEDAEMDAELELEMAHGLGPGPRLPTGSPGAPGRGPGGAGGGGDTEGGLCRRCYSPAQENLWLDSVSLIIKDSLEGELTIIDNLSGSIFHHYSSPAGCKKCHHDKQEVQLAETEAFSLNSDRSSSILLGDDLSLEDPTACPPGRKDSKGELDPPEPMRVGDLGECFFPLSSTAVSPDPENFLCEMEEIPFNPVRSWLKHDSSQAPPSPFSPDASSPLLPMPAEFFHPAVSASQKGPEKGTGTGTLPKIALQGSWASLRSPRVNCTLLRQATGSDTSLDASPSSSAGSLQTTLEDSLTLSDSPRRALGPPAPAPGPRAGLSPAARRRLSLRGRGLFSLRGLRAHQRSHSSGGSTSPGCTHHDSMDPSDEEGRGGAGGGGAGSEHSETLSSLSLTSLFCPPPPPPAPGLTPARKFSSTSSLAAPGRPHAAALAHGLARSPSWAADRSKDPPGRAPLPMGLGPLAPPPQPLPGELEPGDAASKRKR
T1 sequence (O43497 whole entry): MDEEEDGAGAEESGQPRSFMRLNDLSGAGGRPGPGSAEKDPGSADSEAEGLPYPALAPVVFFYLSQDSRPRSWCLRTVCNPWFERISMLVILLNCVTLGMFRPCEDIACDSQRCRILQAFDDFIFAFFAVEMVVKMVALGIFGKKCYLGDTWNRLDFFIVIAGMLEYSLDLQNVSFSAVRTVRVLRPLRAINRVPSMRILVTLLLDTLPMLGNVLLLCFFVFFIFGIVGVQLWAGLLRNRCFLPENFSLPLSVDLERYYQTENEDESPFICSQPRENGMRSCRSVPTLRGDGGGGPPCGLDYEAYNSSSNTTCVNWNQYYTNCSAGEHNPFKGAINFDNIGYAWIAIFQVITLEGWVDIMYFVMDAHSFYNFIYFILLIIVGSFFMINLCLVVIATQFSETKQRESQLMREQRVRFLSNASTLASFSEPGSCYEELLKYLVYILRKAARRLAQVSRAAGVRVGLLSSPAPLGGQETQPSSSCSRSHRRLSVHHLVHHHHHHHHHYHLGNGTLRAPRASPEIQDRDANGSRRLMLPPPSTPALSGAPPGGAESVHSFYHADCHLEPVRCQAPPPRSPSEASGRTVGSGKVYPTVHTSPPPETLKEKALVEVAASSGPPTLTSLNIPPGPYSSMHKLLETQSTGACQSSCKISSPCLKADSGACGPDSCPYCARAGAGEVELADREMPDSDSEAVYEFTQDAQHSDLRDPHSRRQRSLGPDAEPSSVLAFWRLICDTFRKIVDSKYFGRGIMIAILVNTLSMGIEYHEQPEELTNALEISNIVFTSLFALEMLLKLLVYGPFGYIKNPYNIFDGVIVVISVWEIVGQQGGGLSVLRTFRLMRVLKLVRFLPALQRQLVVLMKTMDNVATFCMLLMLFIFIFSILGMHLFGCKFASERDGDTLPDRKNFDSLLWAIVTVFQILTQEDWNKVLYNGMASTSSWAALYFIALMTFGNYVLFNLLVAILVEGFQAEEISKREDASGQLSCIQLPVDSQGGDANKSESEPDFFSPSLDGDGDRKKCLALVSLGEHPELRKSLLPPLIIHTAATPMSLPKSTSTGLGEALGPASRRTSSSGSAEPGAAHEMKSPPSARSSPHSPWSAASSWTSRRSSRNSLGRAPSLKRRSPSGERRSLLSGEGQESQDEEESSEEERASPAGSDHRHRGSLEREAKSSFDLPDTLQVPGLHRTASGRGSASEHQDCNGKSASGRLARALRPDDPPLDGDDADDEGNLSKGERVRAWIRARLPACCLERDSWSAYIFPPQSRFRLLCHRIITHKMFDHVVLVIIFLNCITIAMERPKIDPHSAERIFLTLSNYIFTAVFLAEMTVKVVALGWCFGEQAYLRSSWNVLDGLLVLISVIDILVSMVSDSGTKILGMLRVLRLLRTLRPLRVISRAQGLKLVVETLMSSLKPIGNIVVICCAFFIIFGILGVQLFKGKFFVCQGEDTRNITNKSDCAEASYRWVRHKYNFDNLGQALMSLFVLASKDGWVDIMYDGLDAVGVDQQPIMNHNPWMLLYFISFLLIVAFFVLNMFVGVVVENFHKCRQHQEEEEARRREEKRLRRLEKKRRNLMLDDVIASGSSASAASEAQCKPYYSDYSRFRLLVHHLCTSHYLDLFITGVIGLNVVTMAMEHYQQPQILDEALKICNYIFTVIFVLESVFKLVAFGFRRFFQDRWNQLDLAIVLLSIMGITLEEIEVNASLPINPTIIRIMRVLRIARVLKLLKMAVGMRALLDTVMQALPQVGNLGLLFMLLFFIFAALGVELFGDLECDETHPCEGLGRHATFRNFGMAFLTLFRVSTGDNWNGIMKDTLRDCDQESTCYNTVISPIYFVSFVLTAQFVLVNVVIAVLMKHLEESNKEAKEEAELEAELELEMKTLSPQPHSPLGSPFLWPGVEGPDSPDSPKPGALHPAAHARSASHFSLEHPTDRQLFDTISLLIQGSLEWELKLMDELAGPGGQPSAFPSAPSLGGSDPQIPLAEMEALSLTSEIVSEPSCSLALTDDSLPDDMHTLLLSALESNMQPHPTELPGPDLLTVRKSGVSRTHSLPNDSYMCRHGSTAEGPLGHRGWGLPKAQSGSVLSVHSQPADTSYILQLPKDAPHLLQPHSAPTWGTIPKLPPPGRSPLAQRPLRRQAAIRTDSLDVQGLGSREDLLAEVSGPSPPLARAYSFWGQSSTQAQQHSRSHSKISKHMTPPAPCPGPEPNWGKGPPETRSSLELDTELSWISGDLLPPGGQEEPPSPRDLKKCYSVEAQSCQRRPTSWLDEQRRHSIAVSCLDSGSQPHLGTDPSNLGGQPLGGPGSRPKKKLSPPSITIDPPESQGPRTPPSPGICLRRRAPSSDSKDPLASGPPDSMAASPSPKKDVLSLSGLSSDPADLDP

On to `CC(C)(C)CCN1CCC2(CC1)C[C@H]2NC(=O)c1cc(C(F)(F)F)ccc1Cl` (single isomer, unassigned) [Example 147, (R)-2-Chloro-N-(6-(3,3-dimethylbutyl)-6-azaspiro[2.5]octan-1-yl)-5-(trifluoromethyl)benzamide or (S)-2-Chloro-N-(6-(3,3-dimethylbutyl)-6-azaspiro[2.5]octan-1-yl)-5-(trifluoromethyl)benzamide], for which, in assay [1], the IC50 (in general, the midpoint of a concentration-inhibition curve) worked out at 2.41 µM. In addition, in assay [2], the latency to seizures entry is given as “significantly prolonged latencies to seizures”, the fatality latency result is listed as “prolonged fatality latencies” and the fatality rate entry was “decreased the fatality rate”. The IC50 in assay [3] is above 100 µM. In assay [4], the IC50 was 1.58 µM.
In assay [1], `CC(C)(C)NC(=O)CN1CCC2(CC1)C[C@H]2NC(=O)c1cc(F)cc(C(F)(F)F)c1` (single isomer, unassigned) [Example 130, (R)—N-(6-(2-(tert-Butylamino)-2-oxoethyl)-6-azaspiro[2.5]octan-1-yl)-3-fluoro-5-(trifluoromethyl)benzamide or (S)—N-(6-(2-(tert-Butylamino)-2-oxoethyl)-6-azaspiro[2.5]octan-1-yl)-3-fluoro-5-(trifluoromethyl)benzamide] gave an IC50 of 0.11 µM. In addition, in assay [2], the latency to seizures result is “significantly prolonged latencies to seizures”, the fatality latency entry is listed as “prolonged fatality latencies” and the fatality rate entry is given as “decreased the fatality rate”. Further, the IC50 in assay [3] was above 100 µM. The same compound registered an IC50 in assay [4] of 0.28 µM.
`CC(C)(C)CCN1CCC2(CC1)C[C@H]2NC(=O)c1cc(C(F)(F)F)cc(C(F)(F)F)c1` (single isomer, unassigned) [Example 146, (R)—N-(6-(3,3-dimethylbutyl)-6-azaspiro[2.5]octan-1-yl)-3,5-bis(trifluoromethyl)benzamide or (S)—N-(6-(3,3-dimethylbutyl)-6-azaspiro[2.5]octan-1-yl)-3,5-bis(trifluoromethyl)benzamide] registered an IC50 in assay [1] of 0.12 µM. In assay [2], the latency to seizures result is given as “significantly prolonged latencies to seizures”, the fatality latency entry is “prolonged fatality latencies” and the fatality rate entry is listed as “decreased the fatality rate”. The compound also registered an IC50 in assay [3] above 100 µM. The compound also displayed an IC50 in assay [4] of 0.11 µM.
For the compound `CC(C)(C)NC(=O)CN1CCC2(CC1)C[C@H]2NC(=O)c1cc(Cl)cc(Cl)c1` (single isomer, unassigned) [Example 57, (R)—N-(6-(2-(tert-Butylamino)-2-oxoethyl)-6-azaspiro[2.5]octan-1-yl)-3,5-dichlorobenzamide or (S)—N-(6-(2-(tert-Butylamino)-2-oxoethyl)-6-azaspiro[2.5]octan-1-yl)-3,5-dichlorobenzamide], the half-maximal inhibitory concentration (IC50) in assay [1] came out at 0.13 µM. Besides, in assay [2], the latency to seizures result was “significantly prolonged latencies to seizures”, the fatality latency result is “prolonged fatality latencies” and the fatality rate entry is “decreased the fatality rate”. For the same compound, in assay [3], the IC50 was above 100 µM. This compound had an IC50 in assay [4] of 0.098 µM.
In turn, `CC(C)(C)NC(=O)CN1CCC2(CC1)CC2NC(=O)c1cc(F)cc(Cl)c1` (stereo not drawn) [Example 17, N-(6-(2-(tert-Butylamino)-2-oxoethyl)-6-azaspiro[2.5]octan-1-yl)-3-chloro-5-fluorobenzamide] registered an IC50 in assay [1] of 0.29 µM. In assay [2], the latency to seizures result is given as “significantly prolonged latencies to seizures”, the fatality latency result is recorded as “prolonged fatality latencies” and the fatality rate result was “decreased the fatality rate”. In addition, the IC50 in assay [3] is above 100 µM. In addition, in assay [4], the IC50 turned out to be 0.29 µM.
In assay [1], `CC(C)(C)NC(=O)CN1CCC2(CC1)C[C@H]2NC(=O)c1cc(C(F)(F)F)cc(C(F)(F)F)c1` (single isomer, unassigned) [Example 144, ((R)—N-(6-(2-(tert-butylamino)-2-oxoethyl)-6-azaspiro[2.5]octan-1-yl)-3,5-bis(trifluoromethyl)benzamide or (S)—N-(6-(2-(tert-butylamino)-2-oxoethyl)-6-azaspiro[2.5]octan-1-yl)-3,5-bis(trifluoromethyl)benzamide] had a 50% inhibitory concentration (IC50) of 0.04 µM. Moreover, in assay [2], the latency to seizures entry was “significantly prolonged latencies to seizures”, the fatality latency entry is “prolonged fatality latencies” and the fatality rate result is listed as “decreased the fatality rate”. This compound yielded an IC50 in assay [3] above 30 µM. This compound yielded an IC50 in assay [4] of 0.25 µM.
